# Values joined by “and” are separate entries in the source; they are usually repeats but may differ in a detail not shown here. Equal values may be shown once.
# Tests used:
# [1] = test system: Galium aparine (cleavers, GALAP); test: Greenhouse postemergence trial GALAP; assay type: in vivo; conditions: c1-3 Compound A 7.5/10/15
# Method: (§1) Seeds of the desired test plant species were planted in a 90:10% v/v (volume/volume) mixture of PRO-MIX® BX (Premier Tech Horticulture, Quakertown, PA, USA) and PROFILE® GREENS GRADE™ (Profile Products LLC, Buffalo Grove, IL, USA) planting mixture, which typically has a pH of 5.2 to 6.2 and an organic matter content of at least 50 percent, in plastic pots with a surface area of 103.2 square centimeters (cm^2). […] The plants were grown for 7-36 days (d) in a greenhouse with an approximate 14-hour (h) photo-period which was maintained at about 23° C. during the day and 22° C. during the night. Nutrients and water were added on a regular basis and supplemental lighting was provided with overhead metal halide 1000-Watt lamps as necessary. The plants were employed for testing when they reached the second or third true leaf stage.
# (§2) Emulsifiable concentrates of each of each pyridine carboxylate herbicide (Compound A or Compound B) were prepared at 100 grams acid equivalent per liter (g ae/L). The emulsifiable concentrates also included a safener, cloquintocet-mexyl, at 120 grams active ingredient per liter (g ai/L), unless otherwise noted below. An aliquot of each emulsifiable concentrate was placed in a 25 mL glass vial and diluted with an aqueous mixture of 1.25% (v/v) ACTIROB® B esterified rapeseed oil (Bayer Crop Science, Research Triangle Park, NC, USA) or MSO® Concentrate with LECI-TECH® methylated soybean oil (Loveland Products, Loveland, CO, USA) to obtain concentrated stock solutions at the highest application rate for each herbicide, based upon a 12 milliliter (mL) application volume at a rate of 187 liters per hectare (L/ha). The concentrated stock solutions were further diluted with an aqueous mixture of 1.25% v/v ACTIROB® B or MSO® Concentrate with LECI-TECH® to obtain stock solutions at reduced application rates for each herbicide. Spray solutions of the herbicide combinations (Compound A or Compound B plus synthetic auxin herbicide or auxin transport inhibitor) were prepared by adding weighed amounts or aliquots of the synthetic auxin herbicide or auxin transport inhibitor to the stock solutions of Compound A or Compound B to form 12-mL spray solutions in two-way combinations.
# (§3) The spray solutions were applied to the plant material with an overhead Mandel track sprayer equipped with 8002E nozzles calibrated to deliver 187 L/ha over an application area of 0.503 square meters (m^2) at a spray height of 18 inches (43 centimeters (cm)) above the average plant canopy. Control plants were sprayed in the same manner with the solvent blank. All pyridine carboxylate herbicide (component a) application rates are given as “g ae/ha” and all synthetic auxin herbicide or auxin transport inhibitor (component b) application rates are given as “g ai/ha.”
# (§4) The treated plants and control plants were placed in a greenhouse as described above and watered by sub-irrigation to prevent wash-off of the test compounds. After 20-22 d, the condition of the test plants as compared with that of the control plants was determined visually and scored on a scale of 0 to 100 percent where 0 corresponds to no injury and 100 corresponds to complete kill.
# [2] = test system: Veronica hederifolia (ivyleaf speedwell, VERHE); test: Greenhouse postemergence trial VERHE; assay type: in vivo; conditions: c1-3 Compound A 7.5/10/15
# [3] = test system: Papaver rhoeas (corn poppy, PAPRH); test: Greenhouse postemergence trial PAPRH; assay type: in vivo; conditions: c1-3 Compound A 7.5/10/15
# [4] = test system: Papaver rhoeas (corn poppy), herbicide-resistant (PAPRH-R); test: Greenhouse postemergence trial PAPRH-R; assay type: in vivo; conditions: c1-3 Compound A 7.5/10/15
# Method: as §1, §2, §3, §4
# [5] = test system: Capsella bursa-pastoris (shepherd's purse, CAPBP); test: Greenhouse postemergence trial CAPBP; assay type: in vivo; conditions: c1-3 Compound A 7.5/10/15
# [6] = test system: Stellaria media (chickweed, STEME); test: Greenhouse postemergence trial STEME; assay type: in vivo; conditions: c1-3 Compound A 7.5/10/15
# [7] = test system: Matricaria inodora (false chamomile, MATIN); test: Greenhouse postemergence trial MATIN; assay type: in vivo; conditions: c1-3 Compound A 7.5/10/15
# [8] = test system: Lamium purpureum (purple deadnettle, LAMPU); test: Greenhouse postemergence trial LAMPU; conditions: c1-3 Compound A 7.5/10/15
# [9] = test system: Viola tricolor (wild pansy, VIOTR); test: Greenhouse postemergence trial VIOTR; conditions: c1-3 Compound A 7.5/10/15;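 also: greenhouse plants sprayed at second to third true leaf stage, injury rated visually after 20-22 d against solvent-blank sprayed controls, 0 meaning no injury and 100 complete kill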
# [10] = test system: Triticum aestivum (spring wheat, TRZAS); assay type: in vivo; conditions: c1-3 Compound A 7.5/10/15; c4-5 Fluroxypyr-MHE 100/140; c6-8, c9-11 A 7.5/10/15 + Fluroxypyr-MHE 100, 140 g/ha
# [11] = test system: Hordeum vulgare (spring barley, HORVS); assay type: in vivo; conditions: c1-3 Compound A 7.5/10/15; c4-5 Fluroxypyr-MHE 100/140; c6-8, c9-11 A 7.5/10/15 + Fluroxypyr-MHE 100, 140 g/ha
# [12] = test system: Cyanus segetum (cornflower, CENCY); test: Greenhouse postemergence trial CENCY; assay type: in vivo; conditions: c1-3 Compound A 7.5/10/15; c4-5 Fluroxypyr-MHE 100/140; c6-8, c9-11 A 7.5/10/15 + Fluroxypyr-MHE 100, 140 g/ha
# Method: as §1, §2, §3, §4
# [13] = test system: Viola arvensis (field violet, VIOAR); test: Greenhouse postemergence trial VIOAR; assay type: in vivo; conditions: c1-3 Compound A 7.5/10/15; c4-5 Fluroxypyr-MHE 100/140; c6-8, c9-11 A 7.5/10/15 + Fluroxypyr-MHE 100, 140 g/ha
# [14] = test system: Veronica persica (bird's-eye speedwell, VERPE); test: Greenhouse postemergence trial VERPE; assay type: in vivo; conditions: c1-3 Compound A 7.5/10/15; c4-5 Fluroxypyr-MHE 100/140; c6-8, c9-11 A 7.5/10/15 + Fluroxypyr-MHE 100, 140 g/ha
# [15] = test system: Anthemis arvensis (field chamomile, ANTAR); test: Greenhouse postemergence trial ANTAR; assay type: in vivo; conditions: c1-3 Compound A 7.5/10/15; c4-5 Fluroxypyr-MHE 100/140; c6-8, c9-11 A 7.5/10/15 + Fluroxypyr-MHE 100, 140 g/ha
# Method: as §1, §2, §3, §4
# [16] = test system: Matricaria discoidea (pineapple weed, MATMT); test: Greenhouse postemergence trial MATMT; assay type: in vivo; conditions: c1-3 Compound A 7.5/10/15; c4-5 Fluroxypyr-MHE 100/140; c6-8, c9-11 A 7.5/10/15 + Fluroxypyr-MHE 100, 140 g/ha
# [17] = test system: Triticum aestivum (winter wheat, TRZAW); test: Greenhouse postemergence crop phytotoxicity TRZAW; assay type: in vivo; conditions: c1-3 Compound A 7.5/10/15; c4-5 Fluroxypyr-MHE 100/140; c6-8, c9-11 A 7.5/10/15 + Fluroxypyr-MHE 100, 140 g/ha
# [18] = test system: Hordeum vulgare (winter barley, HORVW); test: Greenhouse postemergence crop phytotoxicity HORVW; assay type: in vivo; conditions: c1-3 Compound A 7.5/10/15; c4-5 Fluroxypyr-MHE 100/140; c6-8, c9-11 A 7.5/10/15 + Fluroxypyr-MHE 100, 140 g/ha
# [19] = c4-6 Clopyralid 30/60/120, c7-9, c10-12, c13-15 A 7.5/10/15 + Clopyralid 30, 60, 120 g/ha
# [20] = c4-5 Fluroxypyr-MHE 100/140, c6-8, c9-11 A 7.5/10/15 + Fluroxypyr-MHE 100, 140 g/ha
smiles,measurement,setting,value
"O=C(O)c1nc(Cl)ccc1Cl [Clopyralid, clopyralid, reference compound]",% visual injury,[1]; [19],0%
same,% visual injury,[2]; [19],0%
same,% visual injury,[3]; [19],0%
same,% visual injury,[4]; [19],0%
same,% visual injury,[5]; [19],0%
same,% visual injury,[6]; [19],0%
same,% visual injury,[7]; [19],35%
same,% visual injury,[8]; [19],0%
same,% visual injury,[9]; [19],0%
"CCCCCCC(C)OC(=O)COc1nc(F)c(Cl)c(N)c1Cl (stereo not drawn) [Fluroxypyr-MHE, fluroxypyr-meptyl, reference compound]",% visual injury (crop phytotoxicity),[10],0%
same,% visual injury (crop phytotoxicity),[11],0%
same,% visual injury,[12],60% and 95%
same,% visual injury,[13],20%
same,% visual injury,[1]; [20],85% and 95%
same,% visual injury,[2]; [20],30% and 60%
same,% visual injury,[3]; [20],10%
same,% visual injury,[14],70% and 85%
same,% visual injury,[4]; [20],10%
same,% visual injury,[5]; [20],0%
same,% visual injury,[6]; [20],70% and 75%
same,% visual injury,[15],30% and 35%
same,% visual injury,[16],0%
same,% visual injury,[7]; [20],10% and 15%
same,% visual injury (crop phytotoxicity),[17],0%
same,% visual injury (crop phytotoxicity),[18],0%
same,% visual injury,[8]; [20],60% and 65%
same,% visual injury,[9]; [20],50%

# — patent publication US12568967B2, “Compositions comprising pyridine carboxylate herbicides with synthetic auxin herbicides or auxin transport inhibitors” (priority 2018, dated 2026)
